According to patent US7811609B2, “Use of metal compounds to treat gastrointestinal infections” (priority 2000, dated 2010):
Values joined by “and” are separate entries in the source; they are usually repeats but may differ in a detail not shown here. Equal values may be shown once. Read-outs that look alike come from different tables or passages of the source.

Key:
Helicobacter pylori [1] = assay: MIC against Helicobacter pylori by two fold serial dilution in growth medium; type: cell-based
Method: (§1) Solutions of metal salts were prepared by dilution of the metal salt, optionally together with the ligand, in ultra-high-purity water. The pH values were adjusted to 7 with concentrated sodium hydroxide. The solutions were γ irradiated for 20 to 30 minutes for sterilisation, and then diluted ten fold in the bacterial growth medium to be used.
(§2) A gradient of concentration was obtained by two fold serial dilutions of the medium. The concentrations of metals were analysed by inductively coupled plasma spectrometry. Each dilution was inoculated with the different bacteria to be tested, by multi-point inoculating on the agar media, or suspending in the broth media.
The presence or absence of bacterial growth was reported within the concentration gradient and the minimum concentration of complex in the medium that inhibits totally the bacterial growth (MIC) was determined. The growth on an agar plate was detected by the presence of colonies, and by turbidity in the broth media. The bacteria were identified by the Gram morphology test. Helicobacter pylori growth was also confirmed by biochemical test on the catalase, urease and oxidase activity.

Staphylococcus aureus = assay: MIC against Staphylococcus aureus; type: cell-based
[2] = test system: Coagulase negative staphylococcus; assay: MIC against coagulase negative staphylococcus; type: cell-based; conditions: Mueller-Hinton agar with 2% horse serum and isosensitest agar with 5% horse blood; several strains
Enterococcus faecalis = assay: MIC against Enterococcus faecalis; type: cell-based
Enterococcus faecium = assay: MIC against Enterococcus faecium; type: cell-based; conditions: Mueller-Hinton agar with 2% horse serum and isosensitest agar with 5% horse blood; several strains
Pseudomonas aeruginosa [3] = assay: MIC against Pseudomonas aeruginosa; type: cell-based
Klebsiella = assay: MIC against Klebsiella; type: cell-based
Echerichia coli = assay: MIC against Echerichia coli; type: cell-based
other bacteria = assay: MIC against other bacteria; type: cell-based; conditions: 32 mg/l = estimate limit between active and non-active metals
Helicobacter pylori [4] = assay: Inhibition of Helicobacter pylori growth over time in the STH medium (FIG. 1, cfu/ml against time); type: cell-based; conditions: cobalt 2.00 ppm
From the text: FIG. 1 is a graph showing the inhibition of H. pylori growth by cobalt (cobaltous chloride) in the STH medium.
I50=inhibition of 50% of the Helicobacter pylori inoculated by cobaltous chloride. Concentration of cobalt in the medium was 2.00 ppm.

[5] = Tolerance study in patients with H. pylori infection; type: in vivo, human; conditions: six patients; 20 mg/day cobalt (10 mg b.d) for two weeks; oral capsules or solution
Method: In a tolerance study, six patients with H. pylori infection ingested a low dose of 20 mg/day cobalt, as cobalt chloride (10 mg b.d), for two weeks. […] In one patient the cobalt was taken also with a proton pump inhibitor (Lansoprazole) while the remaining 5 took cobalt alone as capsules (4 patients) or a solution (1 patient). 3 of these patients had gastritis and/or duodenitis with a duodenal ulcer also in one of these three. The other 3 had oesophagitis and/or normal stomach and duodenum.

Helicobacter pylori [6] = test system: Helicobacter pylori
Method: as §1, §2
(§3) Media were incubated for Helicobacter pylori in a microaerobic atmosphere (gas jar containing a CampyGen® pack, 5% O2-10% CO2-85% N2 by volume) with constant shaking (orbital shaker, 140 rpm) at 37° C. for five days.
(§4) The presence or absence of bacterial growth was reported within the concentration gradient and the minimum concentration of complex in the medium that inhibits totally the bacterial growth (MIC) was determined. The growth on an agar plate was detected by the presence of colonies, and by turbidity in the broth media. […] Helicobacter pylori growth was also confirmed by biochemical test on the catalase, urease and oxidase activity.

E. coli = conditions: extrapolated from survival rates; protein broth then phosphate-buffered saline; Zhao et al 1998; cited from earlier work
Pseudomonas aeruginosa [7] = conditions: extrapolated from survival rates; protein broth then phosphate-buffered saline; Zhao et al 1998; cited from earlier work
[8] = test system: Staphylococcus (aureus or Oxford Staph); conditions: extrapolated from survival rates; protein broth then phosphate-buffered saline; Zhao et al 1998; cited from earlier work
H. pylori = conditions: cited from earlier work
Helicobacter pylori [9] = assay: microbe, parasite or virus in culture; conditions: read-out: MIC of amoxycillin (no cobalt)
Method: as §1, §2, §3, §4

[10] = Mueller-Hinton agar with 2% horse serum and isosensitest agar with 5% horse blood, several strains

[Cl-].[Cl-].[Co+2] [Co chloride, cobalt (II) chloride]
Average Selectivity Ratio (Helicobacter pylori [1]; (Sum of MIC values against all bacteria except H. pylori ÷ No. of MIC values) ÷ MIC value for H. pylori): 434
MIC (Helicobacter pylori [1]; STH broth, NCTC 11637 and seven clinical isolates): 0.03 to 0.6 µg/mL
MIC (mg/l), median (Helicobacter pylori [1]; STH broth, NCTC 11637 and seven clinical isolates, median): 0.06 mg/L
Mean ratio pH 4:pH 7, first value (Helicobacter pylori [1]; Strain 1 (Chloride: against first pH 7 value)): 0.5
MIC, Strain 1 (pH 4) (Helicobacter pylori [1]; Strain 1, pH 4): 0.015
MIC, Strain 1 (pH 7) (Helicobacter pylori [1]; Strain 1, pH 7 (first value where two are given)): 0.03
MIC, Strain 1 (pH 7), second value (Helicobacter pylori [1]; Strain 1, pH 7, second of x/y): 0.125
Mean ratio pH 4:pH 7, second value (Helicobacter pylori [1]; Strain 2 (Chloride: Strain 1 against second pH 7 value)): 0.12
MIC, H. pylori, range in brackets (Helicobacter pylori [1]; Table 4): (<0.03-0.125)
MIC, H. pylori (Helicobacter pylori [1]; Table 4, main value): 0.06 µg/mL
activity against H. pylori at pH 4 relative to pH 7 (Helicobacter pylori [1]; Table 5): about 10 fold
kind of action against H. pylori (Helicobacter pylori [1]; found by measuring the MIC): not only bacteriostatic (i.e. inhibitory of growth), but also bactericidal
minimum inhibitory concentration (MIC) (Helicobacter pylori [1]; in vitro, Co^2+ as cobalt chloride): 0.06 µg/mL
MIC, pH 4-7 (Helicobacter pylori [1]; pH 4-7: pH of the media changes during the experiment from acidic start): 0.03-0.4 mg/l
MIC, pH 7 (Helicobacter pylori [1]; pH 7): 0.06-0.4 mg/l
activity against the H. pylori strain deprived of its urease enzyme (Helicobacter pylori [1]; urease-deprived strain): active
MIC (Staphylococcus aureus; [10]): >32 µg/mL
MIC, Staphylococcus (aureus or Oxford Staph) (Staphylococcus aureus; Table 4): > 32 µg/mL
MIC [2]: >32 µg/mL
MIC (Enterococcus faecalis; [10]): >32 µg/mL
MIC, Ent faecalis (Enterococcus faecalis; Table 4): > 32 µg/mL
MIC (Enterococcus faecium): >32 µg/mL
MIC (Pseudomonas aeruginosa [3]; [10]): >32 µg/mL
MIC, Pseudomonas aeruginosa (Pseudomonas aeruginosa [3]; Table 4): > 32 µg/mL
MIC (Klebsiella; [10]): >32 µg/mL
MIC, Klebsiella (Klebsiella; Table 4): > 32 µg/mL
MIC (Echerichia coli; [10]): >32 µg/mL
MIC, E. coli (Echerichia coli; Table 4): > 32 µg/mL
activity (MIC) against other bacteria (other bacteria): > 32 µg/mL
time to I50 (inhibition of 50% of the Helicobacter pylori inoculated) (Helicobacter pylori [4]): 5 h
time to total inhibition (Helicobacter pylori [4]): 8 h
adverse effects [5]: no reported adverse effects
growth in the medium (Helicobacter pylori [6]; Co 0.0015 mg/l, Ax 0 mg/l): +
growth in the medium (Helicobacter pylori [6]; Co 0.004 mg/l, Ax 0 mg/l): +
growth in the medium (Helicobacter pylori [6]; Co 0.008 mg/l, Ax 0 mg/l): +
growth in the medium (Helicobacter pylori [6]; Co 0.030 mg/l, Ax 0 mg/l): −
growth in the medium (Helicobacter pylori [6]; Co 0.060 mg/l, Ax 0 mg/l): −
growth in the medium (Helicobacter pylori [6]; Co 0.120 mg/l, Ax 0 mg/l): −
MIC of cobalt (no amoxycillin) (Helicobacter pylori [6]; no amoxycillin): MIC of cobalt (no amoxycillin): 0.030 mg/l
MIC, E. coli (footnote a) (E. coli): 22.97^a
MIC, Pseudomonas aeruginosa (footnote a) (Pseudomonas aeruginosa [7]): 2.3^a
MIC, Staphylococcus (aureus or Oxford Staph) (footnote a) [8]: 22.97^a

CC1(C)S[C@@H]2[C@H](NC(=O)[C@H](N)c3ccc(O)cc3)C(=O)N2[C@H]1C(=O)O [amoxycillin, reference compound]
growth in the medium (Helicobacter pylori [6]; Co 0 mg/l, Ax 0.002 mg/l): +
growth in the medium (Helicobacter pylori [6]; Co 0 mg/l, Ax 0.004 mg/l): +
growth in the medium (Helicobacter pylori [6]; Co 0 mg/l, Ax 0.008 mg/l): +
growth in the medium (Helicobacter pylori [6]; Co 0 mg/l, Ax 0.015 mg/l): +
growth in the medium (Helicobacter pylori [6]; Co 0 mg/l, Ax 0.03 mg/l): +
growth in the medium (Helicobacter pylori [6]; Co 0 mg/l, Ax 0.06 mg/l): −
MIC, strains that repeatedly showed higher MIC (H. pylori; H. pylori strains lacking one penicillin-binding protein): 0.25 µg/mL and 0.5 µg/mL
MIC, usual (H. pylori; H. pylori, usual strains): ≤ 0.03 µg/mL
MIC (Helicobacter pylori [9]): 0.06 µg/mL
